In ChEMBL document CHEMBL5233235, “Chalcone hybrids as privileged scaffolds in antimalarial drug discovery: A key review” (Eur J Med Chem, 2020):
Values after ≈ are worked out from the molar mass of the structure shown.

What was measured:
[1] = test system: Plasmodium; assay: Antimalarial activity against Plasmodium falciparum K1 by [3H]-hypoxanthine uptake assay; format: functional, organism-based
[2] = test system: Plasmodium falciparum; assay: Antimalarial activity against Plasmodium falciparum; format: functional, organism-based
[3] = test system: Plasmodium falciparum; assay: Antiplasmodial activity against Plasmodium falciparum 3D7 incubated for 30 hrs followed by addition of [3H]-hypoxanthine and measured after 18 hrs by liquid scintillation counting method; format: functional, organism-based
[4] = Cytotoxicity against human HepG2 cells; format: toxicity, cell-based
[5] = test system: Plasmodium falciparum; assay: Antimalarial activity against chloroquine-sensitive Plasmodium falciparum 3D7; format: functional, organism-based
[6] = test system: Plasmodium falciparum; assay: Antiparasitic activity against Plasmodium falciparum W2 incubated for 48 hrs by flow cytometry based analysis; format: functional, organism-based; conditions: W2, 48 h
[7] = Cytotoxicity against mouse FM3A cells incubated for 48 hrs; format: toxicity, cell-based
[8] = Selectivity index, ratio of EC50 for cytotoxicity against mouse FM3A cells to EC50 for antimalarial activity against Plasmodium falciparum ATCC 30932; format: toxicity, cell-based; conditions: read-out: Ratio EC50
[9] = test system: Plasmodium falciparum; assay: Antimalarial activity against Plasmodium falciparum ATCC 30932 incubated for […]; format: functional, organism-based
[10] = test system: Plasmodium falciparum; assay: Antimalarial activity against chloroquine-sensitive Plasmodium falciparum 3D7 by candle jar method; format: functional, organism-based
[11] = test system: Plasmodium falciparum; assay: Antimalarial activity against chloroquine-resistant Plasmodium falciparum W2 incubated for 48 hrs by microscopic analysis; format: functional, organism-based; conditions: W2, 48 h
[12] = test system: Plasmodium falciparum; assay: Antimalarial activity against Plasmodium falciparum 3D7; format: functional, organism-based
[13] = Plasmodium falciparum, 3D7, read-out: IC50

`COc1ccc(/C=C/C(=O)c2ccc(OC)cc2OC)c(OC)c1` showed an IC50 [1] of less than 5000 nM.

For `O=C(/C=C/c1c[nH]c2ccccc12)c1ccccc1O`, the IC50 [2] was 2100 nM.

Work on `C[C@@H]1CC[C@H]2[C@@H](C)C(=O)O[C@@H]3O[C@@]4(C)CC[C@@H]1[C@]32OO4` [ARTEMISININ] yielded an IC50 [3] of 0.021 uM/ml.

In the case of `CCO/C(C)=N/Oc1ccc(C(=O)/C=C/c2cc(OC)ccc2OC)cc1`, the IC50 [3, 13] is reported as 6 µg/mL (≈ 16.2 µM).

Work on `CCO/C(C)=N/Oc1ccc(/C=C/C(=O)c2ccc3ccccc3c2)cc1` yielded an IC50 [4] of 54 µg/mL (≈ 150 µM) and an IC50 [3, 13] of 12 µg/mL (≈ 33.4 µM).

Work on `O=C(/C=C/c1ccc([N+](=O)[O-])cc1)c1c(O)c2ccccc2oc1=O` yielded an IC50 [5] of less than 5 µg/mL.

In the case of `COc1cc(/C=C/C(=O)c2ccc(NS(=O)(=O)c3cc(Cl)ccc3Cl)cc2)cc(OC)c1OC`, the IC50 [6] is reported as 480 nM.

`COc1ccc(C(=O)/C=C/c2ccc(OC)c(OC)c2)c(O)c1` showed an EC50 at 48 h [7] greater than 3.3 µg/mL, a selectivity ratio [8] greater than 3.3 and an EC50 [9] of 1 µg/mL (≈ 3.18 µM).

Molecule `COc1ccc(/C=C/C(=O)c2ccc(-n3ncc4ccccc43)cc2)c(OC)c1` has an IC50 [10] of 1.1 µg/mL (≈ 2.86 µM).

With `O=C(/C=C/c1cc2ccccc2nc1Cl)c1cc(Br)cc(Cl)c1O` the MIC [2] was 10 µg/mL (≈ 23.6 µM).

For `Cc1cccc(C(=O)/C=C(\I)c2cc3ccccc3nc2Cl)c1O`, the MIC [2] was 50 µg/mL (≈ 111 µM).

Molecule `COc1cc(/C=C/C(=O)c2c[n+]([O-])c3ccccc3[n+]2[O-])cc(OC)c1OC` has an IC50 [2] of 6200 nM.

With `CCO/C(C)=N/Oc1ccc(C(=O)/C=C/c2cc(OC)c(OC)c(OC)c2)cc1` the IC50 [4] was 20 µg/mL (≈ 50.1 µM) and the IC50 [3, 13] was 12 µg/mL (≈ 30 µM).

In the case of `CCO/C(C)=N/Oc1ccc(C(=O)/C=C/c2ccc(OCc3ccccc3)cc2)cc1`, the IC50 [3, 13] is reported as 12 µg/mL (≈ 28.9 µM).

`CCc1ccc(/C=C/C(=O)c2ccc(OC)cc2OC)cc1` gave an IC50 [1] of less than 5000 nM.

Work on `COc1ccc(C(=O)/C=C/c2cnc3ccccc3c2)c(OC)c1` yielded an IC50 [1] of less than 5000 nM.

`COc1ccc2nc(Cl)c(/C=C/C(=O)c3cc(Br)cc(Cl)c3O)cc2c1` showed an MIC [2] of 10 µg/mL (≈ 22.1 µM).

Work on `O=C(/C=C/c1ccc(F)cc1F)c1ccc(NS(=O)(=O)c2cc(Cl)ccc2Cl)cc1` yielded an IC50 [6] of 670 nM.

`O=C(/C=C/c1ccc2ccccc2c1)c1c[n+]([O-])c2ccccc2[n+]1[O-]` gave an IC50 [2] of 5800 nM.

Molecule `O=C(/C=C/c1cccc(S(=O)(=O)N2CCOCC2)c1)c1ccccc1` has an IC50 [11] of 2060 nM.

In the case of `COc1ccc(C(=O)/C=C/c2ccc(O)c(O)c2)c(O)c1` [CALYTHROPSIN], the IC50 [12] is reported as 590 nM.
